Source: US4245106A, “Process for the preparation of 1-alkyl-3-aryl-4-pyrazolecarboxylates” (Monsanto Company, priority 1979, dated 1981)

Experiments:
Format in all cases: in vivo
[1] = system: Barnyard grass; assay: pre-emergent herbicidal activity test
Method: (§1) Table II summarizes results of tests conducted to determine the pre-emergent as well as the post-emergent herbicidal activity of the compounds. The pre-emergent test was conducted as follows:
(§2) A good grade of top soil was placed in aluminum pans and compacted to a depth of three-eighths to one-half inch from the top of the pan. On the top of the soil was placed a predetermined number of seeds or vegetative propagules of various plant species. The soil required to level fill the pans after seeding or adding vegetative propagules was weighed into a pan. A known amount of the active ingredient applied in a solvent or as a wettable powder and the soil were thoroughly mixed, and used as a cover layer for prepared pans. After treatment the pans were moved into a greenhouse bench where they were watered from below as needed to give adequate moisture for germination and growth.
(§3) A herbicial rating code was used to signify the extent of phytotoxicity of each species. The rating are defined as follows: […]

[2] = system: Bromus tectorum; assay: pre-emergent herbicidal activity test
Method: as §1, §2, §3

[3] = system: Canada Thistle; assay: pre-emergent herbicidal activity test
Method: as §1, §2, §3

[4] = system: Cocklebur; assay: pre-emergent herbicidal activity test
Method: as §1, §2, §3

[5] = system: Johnsongrass; assay: pre-emergent herbicidal activity test
Method: as §1, §2, §3

[6] = system: Lambsquarter; assay: pre-emergent herbicidal activity test
Method: as §1, §2, §3

[7] = system: Morningglory; assay: pre-emergent herbicidal activity test
Method: as §1, §2, §3

[8] = system: Nutsedge; assay: pre-emergent herbicidal activity test
Method: as §1, §2, §3

[9] = system: Quackgrass; assay: pre-emergent herbicidal activity test
Method: as §1, §2, §3

[10] = system: Smartweed; assay: pre-emergent herbicidal activity test
Method: as §1, §2, §3

[11] = system: Velvetleaf; assay: pre-emergent herbicidal activity test
Method: as §1, §2, §3

[12] = system: Barnyard grass; assay: post-emergent herbicidal activity test
Method: (§4) The post-emergent tests were conducted as follows. The active ingredients are applied in spray form to two or three-week old specimens of various plant species. The spray, a solution or wettable powder suspension containing the appropriate rate of active ingredient to give the desired test rate and a surfactant, is applied to the plants. The treated plants are placed in a greenhouse and unless otherwise noted approximately four weeks later the effects are observed and recorded.

[13] = system: Bromus tectorum; assay: post-emergent herbicidal activity test
Method: as §4

[14] = system: Canada Thistle; assay: post-emergent herbicidal activity test
Method: as §4

[15] = system: Cocklebur; assay: post-emergent herbicidal activity test
Method: as §4

[16] = system: Johnsongrass; assay: post-emergent herbicidal activity test
Method: as §4

[17] = system: Lambsquarter; assay: post-emergent herbicidal activity test
Method: as §4

[18] = system: Morningglory; assay: post-emergent herbicidal activity test
Method: as §4

[19] = system: Nutsedge; assay: post-emergent herbicidal activity test
Method: as §4

[20] = system: Quackgrass; assay: post-emergent herbicidal activity test
Method: as §4

[21] = system: Smartweed; assay: post-emergent herbicidal activity test
Method: as §4

[22] = system: Velvetleaf; assay: post-emergent herbicidal activity test
Method: as §4

[23] = 11.2 Kg/Ha, approximately 28 days after seeding and treating
[24] = *11.2 Kg/Ha, observed approximately 14 days after treatment
[25] = 11.2 Kg/Ha, approximately four weeks later
Also: ranges in brackets are in %.

SMILES: CCOC(=O)c1cn(CC)nc1-c1cccc(C(F)(F)F)c1 [Example 1]
- Pre-Emergent herbicidal rating, K Barnyard grass [1, 23]: 3 (75-100)
- Pre-Emergent herbicidal rating, K Barnyard grass [1, 24]: 3 (75-100)
- Pre-Emergent herbicidal rating, J Bromus tectorum [2, 23]: 1 (25-49)
- Pre-Emergent herbicidal rating, J Bromus tectorum [2, 24]: 2 (50-74)
- Pre-Emergent herbicidal rating, A Canada Thistle [3, 23]: 1 (25-49)
- Pre-Emergent herbicidal rating, A Canada Thistle [3, 24]: 1 (25-49)
- Pre-Emergent herbicidal rating, B Cocklebur [4, 23]: 0 (0-24)
- Pre-Emergent herbicidal rating, B Cocklebur [4, 24]: 1 (25-49)
- Pre-Emergent herbicidal rating, I Johnsongrass [5, 23]: 0 (0-24)
- Pre-Emergent herbicidal rating, I Johnsongrass [5, 24]: 0 (0-24)
- Pre-Emergent herbicidal rating, E Lambsquarter [6, 23]: 3 (75-100)
- Pre-Emergent herbicidal rating, E Lambsquarter [6, 24]: 3 (75-100)
- Pre-Emergent herbicidal rating, D Morningglory [7, 23]: 0 (0-24)
- Pre-Emergent herbicidal rating, D Morningglory [7, 24]: 2 (50-74)
- Pre-Emergent herbicidal rating, G Nutsedge [8, 23]: 0 (0-24)
- Pre-Emergent herbicidal rating, G Nutsedge [8, 24]: 0 (0-24)
- Pre-Emergent herbicidal rating, H Quackgrass [9, 23]: 0 (0-24)
- Pre-Emergent herbicidal rating, H Quackgrass [9, 24]: 1 (25-49)
- Pre-Emergent herbicidal rating, F Smartweed [10, 23]: 1 (25-49)
- Pre-Emergent herbicidal rating, F Smartweed [10, 24]: 3 (75-100)
- Pre-Emergent herbicidal rating, C Velvetleaf [11, 23]: 3 (75-100)
- Pre-Emergent herbicidal rating, C Velvetleaf [11, 24]: 3 (75-100)
- Post-Emergent herbicidal rating, K Barnyard grass [12, 25]: 0 (0-24)
- Post-Emergent herbicidal rating, K Barnyard grass [12, 24]: 1 (25-49)
- Post-Emergent herbicidal rating, J Bromus tectorum [13, 25]: 0 (0-24)
- Post-Emergent herbicidal rating, J Bromus tectorum [13, 24]: 1 (25-49)
- Post-Emergent herbicidal rating, A Canada Thistle [14, 25]: 1 (25-49)
- Post-Emergent herbicidal rating, A Canada Thistle [14, 24]: 1 (25-49)
- Post-Emergent herbicidal rating, B Cocklebur [15, 25]: 1 (25-49)
- Post-Emergent herbicidal rating, B Cocklebur [15, 24]: 1 (25-49)
- Post-Emergent herbicidal rating, I Johnsongrass [16, 25]: 0 (0-24)
- Post-Emergent herbicidal rating, I Johnsongrass [16, 24]: 1 (25-49)
- Post-Emergent herbicidal rating, E Lambsquarter [17, 25]: 1 (25-49)
- Post-Emergent herbicidal rating, E Lambsquarter [17, 24]: 1 (25-49)
- Post-Emergent herbicidal rating, D Morningglory [18, 25]: 1 (25-49)
- Post-Emergent herbicidal rating, D Morningglory [18, 24]: 1 (25-49)
- Post-Emergent herbicidal rating, G Nutsedge [19, 25]: 0 (0-24)
- Post-Emergent herbicidal rating, G Nutsedge [19, 24]: 1 (25-49)
- Post-Emergent herbicidal rating, H Quackgrass [20, 25]: 0 (0-24)
- Post-Emergent herbicidal rating, H Quackgrass [20, 24]: 1 (25-49)
- Post-Emergent herbicidal rating, F Smartweed [21, 25]: 0 (0-24)
- Post-Emergent herbicidal rating, F Smartweed [21, 24]: 1 (25-49)
- Post-Emergent herbicidal rating, C Velvetleaf [22, 25]: 1 (25-49)
- Post-Emergent herbicidal rating, C Velvetleaf [22, 24]: 1 (25-49)

SMILES: CCOC(=O)c1cn(C)nc1-c1cc(C(F)(F)F)cc(C(F)(F)F)c1 [Example 10]
- Pre-Emergent herbicidal rating, K Barnyard grass [1, 23]: 2 (50-74)
- Pre-Emergent herbicidal rating, K Barnyard grass [1, 24]: 3 (75-100)
- Pre-Emergent herbicidal rating, J Bromus tectorum [2, 23]: 1 (25-49)
- Pre-Emergent herbicidal rating, J Bromus tectorum [2, 24]: 1 (25-49)
- Pre-Emergent herbicidal rating, A Canada Thistle [3, 23]: 0 (0-24)
- Pre-Emergent herbicidal rating, A Canada Thistle [3, 24]: 1 (25-49)
- Pre-Emergent herbicidal rating, B Cocklebur [4, 23]: 0 (0-24)
- Pre-Emergent herbicidal rating, B Cocklebur [4, 24]: 0 (0-24)
- Pre-Emergent herbicidal rating, I Johnsongrass [5, 23]: 0 (0-24)
- Pre-Emergent herbicidal rating, I Johnsongrass [5, 24]: 0 (0-24)
- Pre-Emergent herbicidal rating, E Lambsquarter [6, 23]: 3 (75-100)
- Pre-Emergent herbicidal rating, E Lambsquarter [6, 24]: 3 (75-100)
- Pre-Emergent herbicidal rating, D Morningglory [7, 23]: 0 (0-24)
- Pre-Emergent herbicidal rating, D Morningglory [7, 24]: 1 (25-49)
- Pre-Emergent herbicidal rating, G Nutsedge [8, 23]: 0 (0-24)
- Pre-Emergent herbicidal rating, G Nutsedge [8, 24]: 0 (0-24)
- Pre-Emergent herbicidal rating, H Quackgrass [9, 23]: 0 (0-24)
- Pre-Emergent herbicidal rating, H Quackgrass [9, 24]: 0 (0-24)
- Pre-Emergent herbicidal rating, F Smartweed [10, 23]: 0 (0-24)
- Pre-Emergent herbicidal rating, F Smartweed [10, 24]: 1 (25-49)
- Pre-Emergent herbicidal rating, C Velvetleaf [11, 23]: 0 (0-24)
- Pre-Emergent herbicidal rating, C Velvetleaf [11, 24]: 1 (25-49)
- Post-Emergent herbicidal rating, K Barnyard grass [12, 25]: 1 (25-49)
- Post-Emergent herbicidal rating, K Barnyard grass [12, 24]: 0 (0-24)
- Post-Emergent herbicidal rating, J Bromus tectorum [13, 25]: 0 (0-24)
- Post-Emergent herbicidal rating, J Bromus tectorum [13, 24]: 0 (0-24)
- Post-Emergent herbicidal rating, A Canada Thistle [14, 25]: 1 (25-49)
- Post-Emergent herbicidal rating, A Canada Thistle [14, 24]: 2 (50-74)
- Post-Emergent herbicidal rating, B Cocklebur [15, 25]: 2 (50-74)
- Post-Emergent herbicidal rating, B Cocklebur [15, 24]: 2 (50-74)
- Post-Emergent herbicidal rating, I Johnsongrass [16, 25]: 0 (0-24)
- Post-Emergent herbicidal rating, I Johnsongrass [16, 24]: 0 (0-24)
- Post-Emergent herbicidal rating, E Lambsquarter [17, 25]: 2 (50-74)
- Post-Emergent herbicidal rating, E Lambsquarter [17, 24]: 1 (25-49)
- Post-Emergent herbicidal rating, D Morningglory [18, 25]: 2 (50-74)
- Post-Emergent herbicidal rating, D Morningglory [18, 24]: 2 (50-74)
- Post-Emergent herbicidal rating, G Nutsedge [19, 25]: 0 (0-24)
- Post-Emergent herbicidal rating, G Nutsedge [19, 24]: 0 (0-24)
- Post-Emergent herbicidal rating, H Quackgrass [20, 25]: 0 (0-24)
- Post-Emergent herbicidal rating, H Quackgrass [20, 24]: 0 (0-24)
- Post-Emergent herbicidal rating, F Smartweed [21, 25]: 0 (0-24)
- Post-Emergent herbicidal rating, F Smartweed [21, 24]: 1 (25-49)
- Post-Emergent herbicidal rating, C Velvetleaf [22, 25]: 0 (0-24)
- Post-Emergent herbicidal rating, C Velvetleaf [22, 24]: 1 (25-49)

SMILES: CCOC(=O)c1cn(C)nc1-c1cccc(C(F)(F)F)c1 [Example 12]
- Pre-Emergent herbicidal rating, K Barnyard grass [1, 23]: 3 (75-100)
- Pre-Emergent herbicidal rating, K Barnyard grass [1, 24]: 3 (75-100)
- Pre-Emergent herbicidal rating, J Bromus tectorum [2, 23]: 1 (25-49)
- Pre-Emergent herbicidal rating, J Bromus tectorum [2, 24]: 2 (50-74)
- Pre-Emergent herbicidal rating, A Canada Thistle [3, 23]: 0 (0-24)
- Pre-Emergent herbicidal rating, A Canada Thistle [3, 24]: 2 (50-74)
- Pre-Emergent herbicidal rating, B Cocklebur [4, 23]: 0 (0-24)
- Pre-Emergent herbicidal rating, B Cocklebur [4, 24]: 0 (0-24)
- Pre-Emergent herbicidal rating, I Johnsongrass [5, 23]: 0 (0-24)
- Pre-Emergent herbicidal rating, I Johnsongrass [5, 24]: 0 (0-24)
- Pre-Emergent herbicidal rating, E Lambsquarter [6, 23]: 3 (75-100)
- Pre-Emergent herbicidal rating, E Lambsquarter [6, 24]: 3 (75-100)
- Pre-Emergent herbicidal rating, D Morningglory [7, 23]: 3 (75-100)
- Pre-Emergent herbicidal rating, D Morningglory [7, 24]: 3 (75-100)
- Pre-Emergent herbicidal rating, G Nutsedge [8, 23]: 0 (0-24)
- Pre-Emergent herbicidal rating, G Nutsedge [8, 24]: 0 (0-24)
- Pre-Emergent herbicidal rating, H Quackgrass [9, 23]: 0 (0-24)
- Pre-Emergent herbicidal rating, H Quackgrass [9, 24]: 0 (0-24)
- Pre-Emergent herbicidal rating, F Smartweed [10, 23]: 3 (75-100)
- Pre-Emergent herbicidal rating, F Smartweed [10, 24]: 3 (75-100)
- Pre-Emergent herbicidal rating, C Velvetleaf [11, 23]: 3 (75-100)
- Pre-Emergent herbicidal rating, C Velvetleaf [11, 24]: 3 (75-100)
- Post-Emergent herbicidal rating, K Barnyard grass [12, 25]: 0 (0-24)
- Post-Emergent herbicidal rating, K Barnyard grass [12, 24]: 1 (25-49)
- Post-Emergent herbicidal rating, J Bromus tectorum [13, 25]: 0 (0-24)
- Post-Emergent herbicidal rating, J Bromus tectorum [13, 24]: 0 (0-24)
- Post-Emergent herbicidal rating, A Canada Thistle [14, 25]: 1 (25-49)
- Post-Emergent herbicidal rating, A Canada Thistle [14, 24]: 1 (25-49)
- Post-Emergent herbicidal rating, B Cocklebur [15, 25]: 1 (25-49)
- Post-Emergent herbicidal rating, B Cocklebur [15, 24]: 1 (25-49)
- Post-Emergent herbicidal rating, I Johnsongrass [16, 25]: 0 (0-24)
- Post-Emergent herbicidal rating, I Johnsongrass [16, 24]: 0 (0-24)
- Post-Emergent herbicidal rating, E Lambsquarter [17, 25]: 1 (25-49)
- Post-Emergent herbicidal rating, E Lambsquarter [17, 24]: 2 (50-74)
- Post-Emergent herbicidal rating, D Morningglory [18, 25]: 2 (50-74)
- Post-Emergent herbicidal rating, D Morningglory [18, 24]: 3 (75-99)
- Post-Emergent herbicidal rating, G Nutsedge [19, 25]: 0 (0-24)
- Post-Emergent herbicidal rating, G Nutsedge [19, 24]: 0 (0-24)
- Post-Emergent herbicidal rating, H Quackgrass [20, 25]: 0 (0-24)
- Post-Emergent herbicidal rating, H Quackgrass [20, 24]: 0 (0-24)
- Post-Emergent herbicidal rating, F Smartweed [21, 25]: 1 (25-49)
- Post-Emergent herbicidal rating, F Smartweed [21, 24]: 0 (0-24)
- Post-Emergent herbicidal rating, C Velvetleaf [22, 25]: 1 (25-49)
- Post-Emergent herbicidal rating, C Velvetleaf [22, 24]: 1 (25-49)
